Measured values taken from publication PMC5790914, “QStatin, a Selective Inhibitor of Quorum Sensing in Vibrio Species” (mBio, 2018).

Molecular target: T1, SmcR (Vibrio vulnificus, UniProt Q9L8G8)
T1 construct: purified SmcR (dimer); SeMet-substituted SmcR for the crystals
Test: ITC (two-sequential binding model; second Kd =[…]) and […] Å crystal structure of the soaked complex

T1 sequence (Q9L8G8 entry or part of it): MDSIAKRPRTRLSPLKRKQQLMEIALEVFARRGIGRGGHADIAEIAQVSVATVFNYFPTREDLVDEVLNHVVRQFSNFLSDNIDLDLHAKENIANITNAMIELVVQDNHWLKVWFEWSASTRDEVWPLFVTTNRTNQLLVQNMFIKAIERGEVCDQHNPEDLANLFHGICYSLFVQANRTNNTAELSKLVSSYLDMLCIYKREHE

Compound `O=S(=O)(c1ccc(Br)s1)n1cccn1` [377B6, 1-(5-bromothiophene-2-sulfonyl)-1H-pyrazole] has a Kd of 470 nM.
